Measurements as given in patent US8361998B2, “Compounds and their use as IKACh blockers” (AstraZeneca AB, priority 2010, dated 2013).
Structures can show the parent of a compound that is named as a salt.

These molecules were tested against T1, human ether-a-go-go-related gene (hERG)-encoded K+ channel (Homo sapiens, UniProt Q12809) (assay: hERG inhibition, IonWorks HT, hERG-expressing CHO cells).
T1 construct: expressed in transfected cells; host or cells: Chinese hamster ovary K1 (CHO) cells
T1 sequence (Q12809 whole entry): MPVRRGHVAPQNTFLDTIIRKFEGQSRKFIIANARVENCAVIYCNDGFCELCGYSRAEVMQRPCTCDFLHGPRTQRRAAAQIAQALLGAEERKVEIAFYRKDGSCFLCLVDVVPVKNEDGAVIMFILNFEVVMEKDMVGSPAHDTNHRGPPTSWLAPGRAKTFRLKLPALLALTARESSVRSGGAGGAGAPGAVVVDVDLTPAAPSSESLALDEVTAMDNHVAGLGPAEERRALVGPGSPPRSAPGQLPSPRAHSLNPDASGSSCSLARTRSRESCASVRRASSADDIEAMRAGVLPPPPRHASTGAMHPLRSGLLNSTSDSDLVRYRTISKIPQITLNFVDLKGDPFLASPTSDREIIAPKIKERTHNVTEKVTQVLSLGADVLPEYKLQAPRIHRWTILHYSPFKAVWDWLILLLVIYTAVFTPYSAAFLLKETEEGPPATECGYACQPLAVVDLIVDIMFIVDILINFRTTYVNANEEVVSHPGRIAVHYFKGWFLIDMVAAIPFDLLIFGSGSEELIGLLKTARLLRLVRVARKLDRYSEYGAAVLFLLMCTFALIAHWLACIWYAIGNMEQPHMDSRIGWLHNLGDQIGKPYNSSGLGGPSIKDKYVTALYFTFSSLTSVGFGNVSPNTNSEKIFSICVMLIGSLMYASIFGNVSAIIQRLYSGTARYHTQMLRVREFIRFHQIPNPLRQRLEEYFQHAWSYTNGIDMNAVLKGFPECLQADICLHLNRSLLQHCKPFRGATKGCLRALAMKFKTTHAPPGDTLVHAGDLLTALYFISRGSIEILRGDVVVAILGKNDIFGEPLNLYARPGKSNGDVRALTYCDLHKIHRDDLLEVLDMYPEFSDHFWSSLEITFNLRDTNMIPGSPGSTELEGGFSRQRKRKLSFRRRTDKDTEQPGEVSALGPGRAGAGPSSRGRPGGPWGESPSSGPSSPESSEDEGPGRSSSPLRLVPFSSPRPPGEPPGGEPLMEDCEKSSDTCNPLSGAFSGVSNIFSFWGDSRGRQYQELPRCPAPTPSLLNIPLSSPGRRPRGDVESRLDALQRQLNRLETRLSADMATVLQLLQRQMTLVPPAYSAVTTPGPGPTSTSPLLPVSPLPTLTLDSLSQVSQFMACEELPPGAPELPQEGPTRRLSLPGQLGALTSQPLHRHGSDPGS
Type: cell-based
Method: Inhibition of the human ether-a-go-go-related gene (hERG)-encoded K^+ channel was determined using hERG-expressing Chinese hamster ovary K1 (CHO) cells on a IonWorks™ HT assay platform as described by M. H. Bridgland-Taylor et al. J. of Pharmacological and Toxicological Methods (2006); 54:189-199.
Molecule `CCC[C@@H](CN1CCC1)N(C)C(=O)c1ccc(Cl)cc1` [Example 1.2, (S)-N-(1-(Azetidin-1-yl)pentan-2-yl)-4-chloro-N-methylbenzamide] has an IC50 of 20 µM.
With `CCC[C@@H](CN1CCC1)N(C)C(=O)c1ccc(F)c(C)c1` [Example 1.4, (S)-N-(1-(Azetidin-1-yl)pentan-2-yl)-4-fluoro-N,3-dimethyl-benzamide] the IC50 was greater than 33 µM.
Molecule `CC(C)[C@@H](CN1CCCC1)N(C)C(=O)c1ccc(F)cc1Cl` [Example 1.17, (S)-2-Chloro-4-fluoro-N-methyl-N-(3-methyl-1-(pyrrolidin-1-yl)butan-2-yl)benzamide] has an IC50 greater than 100 µM.
In the case of `Cc1cc(C(=O)N(C)[C@H](CN2CCC2)C2CC2)ccc1F` [Example 4.1, (S)—N-(2-(Azetidin-1-yl)-1-cyclopropylethyl)-4-fluoro-N,3-dimethylbenzamide], the IC50 is reported as greater than 33 µM.
In the case of `CN(C(=O)c1ccc(Br)cc1)[C@H](CN1CC(O)C1)C1CC1` [Example 4.4, (S)-4-Bromo-N-(1-cyclopropyl-2-(3-hydroxyazetidin-1-yl)ethyl)-N-methylbenzamide], the IC50 is reported as greater than 33 µM.
In the case of `CC(C)[C@@H](CN1CCC1)N(C)C(=O)c1ccc(Cl)cc1` [Example 5.1, (S)-N-(1-(Azetidin-1-yl)-3-methylbutan-2-yl)-4-chloro-N-methylbenzamide], the IC50 is reported as 76 µM.
`CC(C)[C@@H](CN1CCC1)N(C)C(=O)c1ccc(Br)cc1.O=C(O)CCC(=O)O` [Example 5.2] showed an IC50 of 34 µM.
`Cc1cc(C(=O)N(C)[C@H](CN2CC(O)C2)C(C)C)ccc1F` [Example 6.1, (S)-4-Fluoro-N-(1-(3-hydroxyazetidin-1-yl)-3-methylbutan-2-yl)-N,3-dimethylbenzamide] was tested, and the IC50 was greater than 100 µM.
In the case of `CC(C)[C@@H](CN1CC(O)C1)N(C)C(=O)c1ccc(Cl)cc1` [Example 6.2, (S)-4-Chloro-N-(1-(3-hydroxyazetidin-1-yl)-3-methylbutan-2-yl)-N-methylbenzamide], the IC50 is reported as greater than 53 µM.
`Cc1cc(C(=O)N(C)[C@H](CN2CC(O)C2)C2CC2)ccc1F` [Example 7.1, (S)—N-(1-Cyclopropyl-2-(3-hydroxyazetidin-1-yl)ethyl)-4-fluoro-N,3-dimethylbenzamide] showed an IC50 greater than 33 µM.
In the case of `CN(C(=O)c1ccc(Cl)cc1)[C@H](CN1CC(O)C1)C1CC1` [Example 7.2, (S)-4-Chloro-N-(1-cyclopropyl-2-(3-hydroxyazetidin-1-yl)ethyl)-N-methylbenzamide], the IC50 is reported as greater than 33 µM.
`CN(C(=O)c1ccc(F)c(Cl)c1)[C@H](CN1CC(O)C1)C1CC1` [Example 7.3, (S)-3-Chloro-N-(1-cyclopropyl-2-(3-hydroxyazetidin-1-yl)ethyl)-4-fluoro-N-methylbenzamide] showed an IC50 greater than 33 µM.
`CCC[C@@H](CN1CC(O)C1)N(C)C(=O)c1ccc(F)c(F)c1` [Example 8.1, (S)-3,4-Difluoro-N-(1-(3-hydroxyazetidin-1-yl)pentan-2-yl)-N-methylbenzamide] was tested, and the IC50 was greater than 100 µM.
`CCC[C@@H](CN1CC(O)C1)N(C)C(=O)c1ccc(Cl)cc1` [Example 8.2, (S)-4-Chloro-N-(1-(3-hydroxyazetidin-1-yl)pentan-2-yl)-N-methyl-benzamide, hydrochloride] showed an IC50 greater than 57 µM.
`CCC[C@@H](CN1CC(O)C1)N(C)C(=O)c1ccc(F)cc1` [Example 8.6, (S)-4-Fluoro-N-(1-(3-hydroxyazetidin-1-yl)pentan-2-yl)-N-methylbenzamide] was tested, and the IC50 was greater than 33 µM.
In the case of `CC(C)[C@@H](CN1CC[C@H](O)C1)N(C)C(=O)c1ccc(Cl)cc1` [Example 10.2, 4-Chloro-N-((S)-1-((S)-3-hydroxypyrrolidin-1-yl)-3-methylbutan-2-yl)-N-methylbenzamide hemi tartrate], the IC50 is reported as greater than 33 µM.
Work on `Cc1cc(C(=O)N(C)[C@H](CN2CCCC2)C(C)C)ccc1F` [Example 12.1, (S)-4-Fluoro-N,3-dimethyl-N-(3-methyl-1-(pyrrolidin-1-yl)butan-2-yl)benzamide-dihydroxysuccinate] yielded an IC50 greater than 100 µM.
`Cc1cccc(C(=O)N(C)[C@H](CN2CCCC2)C(C)C)c1` [Example 12.2, (S)-1-(2-(N,3-Dimethylbenzamido)-3-methylbutyl)pyrrolidinium 2,3-dihydroxysuccinate] was tested, and the IC50 was greater than 33 µM.
Molecule `CC(C)[C@@H](CN1CCCC1)N(C)C(=O)c1ccc(F)c(Cl)c1` [Example 16.55, (S)-3-Chloro-4-fluoro-N-methyl-N-(3-methyl-1-(pyrrolidin-1-yl)butan-2-yl)benzamide] has an IC50 greater than 31 µM.
`CC(C)[C@@H](CN1CCCC1)N(C)C(=O)c1ccc(Cl)cc1` [Example 18, (S)-1-(2-(4-Chloro-N-methylbenzamido)-3-methylbutyl)pyrrolidinium chloride] was tested, and the IC50 was greater than 30 µM.
With `CC(C)[C@@H](CN1CCCC1)N(C)C(=O)c1ccc(Br)cc1` [Example 19, (S)-1-(2-(4-bromo-N-methylbenzamido)-3-methylbutyl)pyrrolidinium 3-carboxy-2,3-dihydroxypropanoate] the IC50 was 17 µM.
In the case of `CC[C@H](C)[C@@H](CN1CC(O)C1)N(C)C(=O)c1ccc(C#N)cc1F` [Example 29.7, 4-Cyano-2-fluoro-N-((2S,3S)-1-(3-hydroxyazetidin-1-yl)-3-methylpentan-2-yl)-N-methylbenzamide], the IC50 is reported as greater than 33 µM.
Molecule `CCCC[C@@H](CN1CC(O)C1)N(C)C(=O)c1ccc(C#N)cc1` [Example 33.4, 4-Cyano-N-[(2S)-1-(3-hydroxyazetidin-1-yl)hexan-2-yl]-N-methylbenzamide] has an IC50 of 18 µM.
For `CCCC[C@@H](CN1CC(O)C1)N(C)C(=O)c1ccc(F)cc1` [Example 33.7, 4-Fluoro-N-[(2S)-1-(3-hydroxyazetidin-1-yl)hexan-2-yl]-N-methylbenzamide], the IC50 was 79 µM.
Molecule `CC(C)C[C@@H](CN1CC(O)C1)N(C)C(=O)c1ccc(F)c(F)c1` [Example 38.1, 3,4-Difluoro-N-[(2S)-1-(3-hydroxyazetidin-1-yl)-4-methylpentan-2-yl]-N-methylbenzamide] has an IC50 greater than 33 µM.
With `CC(C)C[C@@H](CN1CC(O)C1)N(C)C(=O)c1ccc(Cl)cc1` [Example 38.2, 4-Chloro-N-[(2S)-1-(3-hydroxyazetidin-1-yl)-4-methylpentan-2-yl]-N-methylbenzamide] the IC50 was greater than 33 µM.
`CC(C)C[C@@H](CN1CC(O)C1)N(C)C(=O)c1ccc(C#N)cc1F` [Example 38.6, 4-Cyano-2-fluoro-N-[(2S)-1-(3-hydroxyazetidin-1-yl)-4-methylpentan-2-yl]-N-methylbenzamide] showed an IC50 greater than 33 µM.
Molecule `CN(C(=O)c1ccc(C#N)cc1)[C@H](CN1CC(O)C1)C1CCC1` [Example 39.2, (S)-4-Cyano-N-(1-cyclobutyl-2-(3-hydroxyazetidin-1-yl)ethyl)-N-methylbenzamide] has an IC50 of 80 µM.
`CC[C@@H](CN1CC(O)C1)N(C)C(=O)c1ccc(Cl)cc1` [Example 39.12, (S)-4-Chloro-N-(1-(3-hydroxyazetidin-1-yl)butan-2-yl)-N-methylbenzamide] gave an IC50 greater than 33 µM.
`CN(C(=O)c1ccc(Cl)cc1)[C@H](CN1CC(O)C1)C1CCC1` [Example 39.14, (S)-4-Chloro-N-(1-cyclobutyl-2-(3-hydroxyazetidin-1-yl)ethyl)-N-methylbenzamide] gave an IC50 greater than 33 µM.
Molecule `Cc1cc(C(=O)N(C)[C@H](CN2CC(O)C2)C2CCC2)ccc1F` [Example 39.16, (S)—N-(1-Cyclobutyl-2-(3-hydroxyazetidin-1-yl)ethyl)-4-fluoro-N,3-dimethylbenzamide] has an IC50 greater than 33 µM.
